The values that follow are results of earlier work, collected in patent publication US12194068B2, “Dietary supplement composition for treating and managing acne” (CODEX LABS CORPORATION, priority 2023, dated 2025).

Molecules are shown by their SMILES.

The test system of the series is C. acnes. The settings on record: compared with benzoyl peroxide and erythromycin.

Consider `Oc1ccc(C=Cc2cc(O)cc(O)c2)cc1` [resveratrol], for which the “inhibition of C. acnes proliferation” value was “on par with benzoyl peroxide and erythromycin”.
